{"source": "patent US20090191185A1", "about": "“Reducing Cancer Cell Invasion Using an Inhibitor of Toll Like Receptor Signaling” (THE UAB RESEARCH FOUNDATION, priority 2006, published 2009)", "format_in_all_cases": "cell-based, human", "key": {"MDA-MB-231 cells": {"tested_on": "MDA-MB-231 cells", "assay": "Matrigel invasion assay, MDA-MB-231 cells", "protocol": "(§1) In vitro invasion assays. For the Matrigel-invasion assay the cells were plated at the density of 5×10^4 (MDA-MB-231, U373, D54MG), 15×10^4 (T47-D) or 30×10^4 (MCF-7) cells per upper well in 750 μl of normal culture medium (Virtanen et al., Cancer Res. 62:2708-14 (2002)), indicated concentrations of the various CpG-ODNs, non-CpG-ODNs or vehicle were added to both the upper and lower wells. When indicated, aprotinin (2 μM), GM6001 (2 μM), MMP-8 inhibitor 1 (8 nM) or the same volume of the corresponding control compound, control IgG or neutralizing anti-MMP-13 antibody (R& D Systems, Minneapolis, Minn., both at 12 μg/ml) or chloroquine (10 μM) were also added to both upper and lower wells. The cells were allowed to invade for 18 h, after which the inserts were removed and stained with the Hema 3 Stain set (Fisher Diagnostics, Middletown, Pa.), according to the manufacturer's recommendation. The number of invaded cells was counted from 5 pre-selected microscopic fields using a 40× objective. To assess invasion in a three-dimensional type I collagen gel, acid solubilized type I collagen (0.9 ml) was added to the Costar Transwell dishes (Corning, Inc., Corning, N.Y.) and gelled over 45 min at 37° C. The collagen was prepared using rat-tail type 1 collagen dissolved in 0.2% acetic acid at 3.2 mg/ml and gelled by neutralizing the acid with 0.3 N NaOH containing phenol red as a pH indicator. A final concentration of 3.0 mg/ml was obtained. Media, containing vehicle or 10 μM type C CpG-ODN was men added to the upper and lower chambers prior to the addition of 5×10^5 cells to the surface of the collagen gel in the presence of serum-containing medium. […] Tumor cell invasion (depth and number of cells below the surface) was assessed by light microscopy in a minimum of four randomly selected sections for each experimental sample. The number of invading cells per high power field (400×) were counted and averaged. The depth of invasion was also measured in four randomly selected areas for each sample using photomicrograph of each sample."}, "[1]": {"tested_on": "MMP-activity in MDA-MB-231 cells", "assay": "gelatin zymogram of MDA-MB-231 supernatants", "conditions": "2 μM added to final incubation of gels", "protocol": "Zymograms. The zymograms were performed as previously described (Suarex-Cuervo et al., Clin. Exp. Metastasis 21:525-33 (2004)). In this assay, the gelatinolytic bands represent the following MMPs: 120 kDa band represents MMP-9 and neutrophil gelatinase associated lipocalin complex, 90 kDa band represents pro-MMP-9 and the 72 kDa band represents proMMP-2. Briefly, MDA-MB-231 cells were plated on 12-well plates and allowed to reach confluency. The cells were then rinsed with PBS and serum-free medium, with the indicated concentrations of type C CpG-ODNs, type C non-CpG-ODNs or vehicle was applied for 24 h."}, "PC-3 cells": {"tested_on": "PC-3 cells", "assay": "Matrigel invasion assay, PC-3 cells", "protocol": "In vitro invasion assays. For the Matrigel-invasion assay the cells were plated at the density of 5×10^4 (PC-3, Du-145, LnCaP and MDA PCa 2b) cells per upper well in 500 μl of normal culture medium, Indicated concentrations of the various CpG-ODNs, bacterial DNA (E. Coli, Sigma, St. Louis, Mo.) or vehicle were added to both the upper and lower wells. When indicated, p38- or JNK-inhibitor (both at final concentration of 10^−5 M), control IgG or neutralizing anti-MMP-13 antibody (R&. D Systems, Minneapolis, Minn., both at 12 μg/ml) or chloroquine (10 μM) were also added to both upper and lower wells. […] The number of invaded cells were counted from 5 pre-selected microscopic fields using a 40× objective."}, "NFκB reporter gene": {"tested_on": "NFκB reporter gene", "assay": "NFκB reporter gene assay in transfected MDA-MB-231 pools", "protocol": "MDA-MB-231 cells were stably transfected with pIRES-EGFP empty vector (EV) or with pIRES-EGFP-TRAF6DN-Flag. Stable pools were Flow-sorted for the expression of EGFP for 3 cycles. […] The same blots were stripped and re-blotted with antibodies against Flag, GFP and actin. For FIG. 12B, the various cells were transiently transfected with a NFκB reporter gene and treated with CpG-ODN or TNF-α. Reporter gene activation was calculated as fold-increase vs. vehicle-treatment. Mean±SD, n=6. * p<0.05, *** p<0.001 pIRES-EV vs. pIRES-EGFP-TRAF6DN. For FIG. 12C, the pIRES-EGFP and pIRES-EGFP-TRAF6DN cells were plated on Matrigel-assays and treated with vehicle or with 2 or 10 μM Non-CpG-ODN or CpG-ODN, The number of invaded cells were counted microscopically 22 h later. Data are expressed as fold-increase in treatment-induced invasion, mean±sd, n±3-6. * p<0.05, ** p<0.01 pIRES-EGFP vs. pIRES-EGFP-TRAF6DN.\nStable transfection of TRAF6 into MDA-MB-231 breast cancer cells. The cDNA encoding for dominant negative TRAF6 has been described previously (Yeo et al., (2003) J. Biol. Chem. 278:22563-22573). The pIRES-EGF-DNTRAF6-Flag and pIRES-EGF were stably transfected into the MDA-MB-231 cells. The established stable pools were submitted to three cycles of Flow-sorting for highest emission of GFP, to enrich the populations of transfected cells. […]"}, "[2]": {"tested_on": "MCF-10A mammary epithelial cells", "assay": "Matrigel invasion assay, MCF-10A cells", "conditions": "1 and 10 μM"}, "[3]": {"tested_on": "MCF-7 breast cancer cells", "assay": "Matrigel invasion assay, MCF-7 cells", "conditions": "1 and 10 μM", "protocol": "as §1, with “objective.” for “objective. To assess invasion in a three-dimensional type I collagen gel, acid solubilized type I collagen (0.9 ml) was added to the Costar Transwell dishes (Corning, Inc., Corning, N.Y.) and gelled over 45 min at 37° C. The collagen was prepared using rat-tail type 1 collagen dissolved in 0.2% acetic acid at 3.2 mg/ml and gelled by neutralizing the acid with 0.3 N NaOH containing phenol red as a pH indicator. A final concentration of 3.0 mg/ml was obtained. Media, containing vehicle or 10 μM type C CpG-ODN was men added to the upper and lower chambers prior to the addition of 5×10^5 cells to the surface of the collagen gel in the presence of serum-containing medium.”"}, "[4]": {"tested_on": "MDA-MB-231, T47-D or MCF-7 cells", "assay": "MTS cell viability assay, breast cancer cells", "protocol": "Cell viability assays. MDA-MB-231, T47-D or MCF-7 cells were plated at the density of 1000 cells/well in 96-well plates in normal culture medium, and cultured for the indicated periods of time with 10 μM type C CpG-ODN or vehicle. Cell viability was assessed after MTS was added for the final 2 hours of the experimental cultures as recommended by the manufacturer (CellTiter 96 AQueous Non-Radioactive Cell Proliferation Assay, Promega, Madison, Wis.)."}}, "note": "Entries after “also recorded” stand apart in the source; their conditions may differ. Oligonucleotides are written 5' to 3', each unit as a sugar letter and its base; * is a phosphorothioate linkage, no mark a phosphodiester; rarer units and linkages stand in square brackets, end groups in braces. Plain capitals give the bases only. d = 2'-deoxy (DNA)", "data": [{"molecule": "CNC(=O)[C@H](Cc1c[nH]c2ccccc12)NC(=O)[C@@H](CC(=O)NO)CC(C)C", "note": "[GM6001]", "values": [{"measurement": "effect on type C CpG-induced invasion of MDA-MB-231 cells", "setting": "MDA-MB-231 cells; inhibitor 2 μM, type C CpG-ODN 10 μM", "result": "inhibited CpG-ODN-induced invasion; also recorded: inhibited by the MMP inhibitor"}, {"measurement": "effect on CpG-ODN-induced gelatinolytic band of about 50 kDa", "setting": "[1]", "result": "abolished; also recorded: did disappear"}]}, {"molecule": "CCN(CC)CCCC(C)Nc1ccnc2cc(Cl)ccc12", "note": "(stereo not drawn) [chloroquine]", "values": [{"measurement": "effect on non-CpG-ODN-induced invasion", "setting": "MDA-MB-231 cells; chloroquine 10 μM, non-CpG-ODN 10 μM, 18 h", "result": "inhibited"}, {"measurement": "effect on CpG-ODN-induced invasion", "setting": "MDA-MB-231 cells; chloroquine 10 μM, type C CpG-ODN 10 μM, 18 h", "result": "blocked; also recorded: inhibited"}, {"measurement": "effect of chloroquine on E. coli DNA-induced invasion of PC-3 cells", "setting": "PC-3 cells; chloroquine 10 μM, 1000 ng/ml E. coli DNA, 20 h", "result": "inhibited"}, {"measurement": "effect of chloroquine on CpG-ODN-induced invasion of PC-3 cells", "setting": "PC-3 cells; chloroquine 10 μM, CpG-ODN 5 μM, 18 h", "result": "significantly inhibited; also recorded: inhibits CpG-ODN-induced invasion"}]}, {"molecule": "C[S+]([O-])c1ccc(-c2nc(-c3ccncc3)c(-c3ccc(F)cc3)[nH]2)cc1", "note": "(stereo not drawn) [p38 inhibitor, SB203580]", "values": [{"measurement": "effect of MAP-kinase inhibitors on CpG-ODN-induced invasion of PC-3 cells", "setting": "PC-3 cells; inhibitor 10^−5 M, CpG-ODN 5 μM, 18 h", "result": "Neither of these inhibitors affected CpG-ODN-induced invasion"}]}, {"molecule": "TNF-α", "values": [{"measurement": "NFκβ-promoter activity in empty vector cells", "setting": "NFκB reporter gene; pIRES-EGFP empty vector MDA-MB-231", "result": "significant increase in NFκβ-promoter activity"}, {"measurement": "NFκβ-promoter activity in TRAF6DN-pool", "setting": "NFκB reporter gene; pIRES-EGFP-TRAF6DN MDA-MB-231", "result": "blunted"}]}, {"molecule": "aprotinin", "values": [{"measurement": "effect on CpG-ODN-induced gelatinolytic band of about 50 kDa", "setting": "[1]", "result": "did not disappear; also recorded: not inhibited"}]}, {"molecule": "type C non-CpG-ODN: 5′-tgc tgc tgc tig caa gca get tga t-3′ (SEQ ID NO:6), non-CpG-ODN control (DNA dT*dG*dC*dT*dG*dC*dT*dG*dC*dT*dT*dG*dC*dA*dA*dG*dC*dA*dG*dC*dT*dT*dG*dA*dT)", "values": [{"measurement": "invasion of MCF-10A cells", "setting": "[2]", "result": "stimulated invasion"}, {"measurement": "invasion of MCF-10A cells", "setting": "[2]; listed as non-CpG-ODN", "result": "induced a significant invasion response"}, {"measurement": "invasion of TLR9 negative MCF-7 cells", "setting": "[3]", "result": "did not, however, stimulate invasion"}, {"measurement": "invasion of TLR9 negative MCF-7 cells", "setting": "[3]; listed as non-CpG-ODN", "result": "no significant effect"}, {"measurement": "cell viability (MTS), longer incubation", "setting": "[4]", "result": "significantly decreased viability"}]}]}
